Consider 58 compounds from the RepoRT retention time repository.

Counter-ions that a name gives are not always drawn.

The data set is described as follows: RP, Waters CORTECS UPLC C18, 100 × 2.1 mm, 1.6 µm, 40 °C, 0.4 mL/min, estimated dead time 0.55 min; A: water + 0.1% formic acid, pH 3; B: acetonitrile + 0.1% formic acid, pH 3; gradient (min/%B) 0/5 1.12/5 6.41/99.5 10.01/99.5. The following applies: stereoisomer not certain.
As to `Cn1c(=O)c2c(ncn2C)n(C)c1=O` [CAFFEINE], the LC retention time is 2.52 min.

For `CC12CCC(=O)C=C1CCC1C2CCC2(C)C1CCC2(O)C(=O)CO` (stereo not drawn) [CORTEXOLONE], the LC retention time is 4.05 min.

With `CC(=O)OCC(=O)C1(O)CCC2C3CCC4=CC(=O)CCC4(C)C3C(O)CC21C` (stereo not drawn) [CORTISOL 21-ACETATE], the LC retention time is 4.25 min.

As to `CC12CCC(=O)C=C1CCC1C2C(O)CC2(C)C1CCC2(O)C(=O)CO` (stereo not drawn) [CORTISOL], the LC retention time was 3.67 min.

As for `CC12CCC(=O)C=C1CCC1C2C(=O)CC2(C)C1CCC2(O)C(=O)CO` (stereo not drawn) [CORTISONE], the LC retention time is 3.69 min.

Turning to `CNC(=O)Oc1cccc2ccccc12` [Carbaryl], the LC retention time was 3.14 min.

As for `COC(=O)Nc1nc2ccccc2[nH]1` [Carbendazim], the LC retention time was 2.38 min.

Turning to `CNC(=O)Oc1cccc2c1OC(C)(C)C2` [Carbofuran], the LC retention time was 4.09 min.

In the case of `CCCCN(CCCC)SN(C)C(=O)Oc1cccc2c1OC(C)(C)C2` [Carbosulfan], the LC retention time is 6.87 min.

`CC1=C(C(=O)Nc2ccccc2)SCCO1` [Carboxin]: the LC retention time is 4.3 min.

As to `CCOC(=O)C(Cl)Cc1cc(-n2nc(C)n(C(F)F)c2=O)c(F)cc1Cl` (stereo not drawn) [Carfentrazone-ethyl], the LC retention time was 5.39 min.

On to `CC(CCC(=O)O)C1CCC2C3C(O)CC4CC(O)CCC4(C)C3CCC12C` (stereo not drawn) [Chenodeoxycholic acid], for which the LC retention time was 5.12 min.

Take `CNC(=O)c1cc(Cl)cc(C)c1NC(=O)c1cc(Br)nn1-c1ncccc1Cl` [Chlorantraniliprole]: the LC retention time is 4.63 min.

Turning to `Nc1cnn(-c2ccccc2)c(=O)c1Cl` [Chloridazon], the LC retention time is 3.17 min.

Consider `Cc1ccc(NC(=O)N(C)C)cc1Cl` [Chlorotoluron], for which the LC retention time is 4.15 min.

As for `CN(C)C(=O)Nc1ccc(Oc2ccc(Cl)cc2)cc1` [Chloroxuron], the LC retention time was 4.84 min.

On to `COP(=S)(OC)Oc1nc(Cl)c(Cl)cc1Cl` [Chlorpyriphos-methyl], for which the LC retention time was 5.73 min.

Regarding `COc1nc(C)nc(NC(=O)NS(=O)(=O)c2ccccc2Cl)n1` [Chlorsulfurson], the LC retention time is 4.12 min.

As to `Clc1ccccc1-c1nnc(-c2ccccc2Cl)nn1` [Clofentezine], the LC retention time was 5.65 min.

For `CC1(C)CON(Cc2ccccc2Cl)C1=O` [Clomazone], the LC retention time is 4.64 min.

As for `CCOP(=S)(OCC)Oc1ccc2c(C)c(Cl)c(=O)oc2c1` [Coumaphos], the LC retention time is 5.6 min.

As for `Cc1ccc(-c2c(Cl)nc(C#N)n2S(=O)(=O)N(C)C)cc1` [Cyazofamid], the LC retention time is 5.39 min.

In the case of `CN(C)C(=O)NC1CCCCCCC1` [Cycluron], the LC retention time was 4.22 min.

Turning to `Cc1ccc(N=c2sccn2C)c(C)c1` [Cymiazol hydrochloride], the LC retention time was 3.22 min.

Turning to `CC(C1CC1)C(O)(Cn1cncn1)c1ccc(Cl)cc1` (stereo not drawn) [Cyproconazole], the LC retention time was 4.78 min.

In the case of `Cc1cc(C2CC2)nc(Nc2ccccc2)n1` [Cyprodinil], the LC retention time was 4.68 min.

Consider `CC(=O)OCC(=O)C1CCC2C3CCC4=CC(=O)CCC4(C)C3CCC12C` (stereo not drawn) [DEOXYCORTICOSTERONE ACETATE], for which the LC retention time is 5.2 min.

As for `Nc1nc2c(ncn2C2CC(O)C(CO)O2)c(=O)[nH]1` (stereo not drawn) [DEOXYGUANOSINE], the LC retention time is 0.751 min.

Turning to `CC1NC(=O)NC1CCCCCC(=O)O` (stereo not drawn) [DETHIOBIOTIN], the LC retention time is 2.9 min.

On to `CCCCCCCCCC(=O)OC(CC(=O)[O-])C[N+](C)(C)C` [Decanoyl-L-carnitine], for which the LC retention time was 4.21 min.

With `CCN(CC)C(=O)c1cccc(C)c1` [Deet], the LC retention time is 4.37 min.

With `CC(CCC(=O)O)C1CCC2C3C(=O)CC4CC(=O)CCC4(C)C3CC(=O)C12C` (stereo not drawn) [Dehydrocholic acid], the LC retention time was 4.13 min.

`CC(CCC(=O)O)C1CCC2C3CCC4CC(O)CCC4(C)C3CC(O)C12C` (stereo not drawn) [Deoxycholic acid]: the LC retention time is 5.22 min.

`CC(C)=CCCC(C)C1CCC2C3CC=C4CC(O)CCC4(C)C3CCC12C` (stereo not drawn) [Desmosterol]: the LC retention time is 6.81 min.

For `CCOP(=S)(OCC)Oc1cc(C)nc(C(C)C)n1` [Diazinon], the LC retention time is 5.73 min.

Regarding `COP(=O)(OC)OC=C(Cl)Cl` [Dichlorvos], the LC retention time was 3.89 min.

For `CCOc1ccc(NC(=O)OC(C)C)cc1OCC` [Diethofencarb], the LC retention time was 4.83 min.

Regarding `CC1COC(Cn2cncn2)(c2ccc(Oc3ccc(Cl)cc3)cc2Cl)O1` (stereo not drawn) [Difenoconazole], the LC retention time was 5.46 min.

In the case of `O=C(NC(=O)c1c(F)cccc1F)Nc1ccc(Cl)cc1` [Diflubenzuron], the LC retention time is 5.11 min.

Take `CC12CCC(O)CC1CCC1C2CC(O)C2(C)C(C3=CC(=O)OC3)CCC12O` (stereo not drawn) [Digoxigenin]: the LC retention time is 2.45 min.

Consider `COCCN(C(=O)CCl)c1c(C)cccc1C` [Dimethachlor], for which the LC retention time was 4.55 min.

In the case of `CNC(=O)CSP(=S)(OC)OC` [Dimethoate], the LC retention time was 3.27 min.

`CNC(=O)C(=NOC)c1ccccc1COc1cc(C)ccc1C` [Dimoxystrobin]: the LC retention time is 5.25 min.

As to `CC(C)(C)C(O)C(=Cc1ccc(Cl)cc1Cl)n1cncn1` (stereo not drawn) [Diniconazole], the LC retention time is 5.27 min.

As for `CNC(=N[N+](=O)[O-])NCC1CCOC1` (stereo not drawn) [Dinotefuran], the LC retention time was 2.2 min.

`CC1CCC2(OC1)OC1CC3C4CC=C5CC(O)CCC5(C)C4CCC3(C)C1C2C` (stereo not drawn) [Diosgenin]: the LC retention time is 7.3 min.

Consider `CCOP(=S)(OCC)Oc1nc(Cl)c(Cl)cc1Cl` [Dursban], for which the LC retention time was 6.17 min.

Turning to `CCOC(=O)Cc1c[nH]c2ccccc12` [ETHYL 3-INDOLEACETATE], the LC retention time is 4.49 min.

Regarding `Fc1ccc(C2(Cn3cncn3)OC2c2ccccc2Cl)cc1` (stereo not drawn) [Epoxiconazol], the LC retention time is 4.94 min.

`CCOP(=S)(OCC)SCSP(=S)(OCC)OCC` [Ethion]: the LC retention time was 6.19 min.

Consider `CCCCc1c(C)nc(NCC)[nH]c1=O` [Ethirimol], for which the LC retention time was 3.01 min.

Regarding `CCOC1Oc2ccc(OS(C)(=O)=O)cc2C1(C)C` (stereo not drawn) [Ethofumesate], the LC retention time was 5.04 min.

Consider `CCCSP(=O)(OCC)SCCC` [Ethoprop], for which the LC retention time was 5.02 min.

As to `Cc1cc2nc3c(=O)[nH]c(=O)nc-3n(CC(O)C(O)C(O)COP(=O)(O)OP(=O)(O)OCC3OC(n4cnc5c(N)ncnc54)C(O)C3O)c2cc1C` (stereo not drawn) [FAD], the LC retention time is 2.34 min.

Regarding `Nc1nc2ncc(CNc3ccc(C(=O)NC(CCC(=O)O)C(=O)O)cc3)nc2c(=O)[nH]1` (stereo not drawn) [FOLATE], the LC retention time is 2.38 min.

With `CSC1=NC(C)(c2ccccc2)C(=O)N1Nc1ccccc1` (stereo not drawn) [Fenamidone], the LC retention time is 4.96 min.

For `CCOP(=O)(NC(C)C)Oc1ccc(SC)c(C)c1` (stereo not drawn) [Fenamiphos], the LC retention time was 4.89 min.

On to `OC(c1ccc(Cl)cc1)(c1cncnc1)c1ccccc1Cl` (stereo not drawn) [Fenarimol], for which the LC retention time was 4.86 min.
